Holding throughout (assay type): physicochemical
Series [1] can be described thus: Absorption and emission (PL) spectra in THF solution. To be noted: for emission spectra peak / maximum absorption: 10 μM. On the procedure: (§1) First, the absorption and emission spectra were recorded. From FIG. 3a, the maximum absorptions of TPE-TBT and TPA-TBT are located at 582 and 620 nm, respectively, which display a redshift because of the enhancement of D-A strength from TPE-TBT to TPA-TBT. In addition, the emission spectra of the two molecules peaked at 750 and 830 nm, respectively (FIG. 3b). […] The aggregation behaviors of the compounds were then investigated. After adding poor solvent water to the THE solution, the fluorescence intensities of the two luminogens are first reduced at low water fractions (0-50% of water) resulting from the twisted intramolecular charge transfer (TICT) effect.

A short description of series [2]: Fluorescence quantum yield (QY). On the procedure: The fluorescence quantum yield (QY) of the two compounds in the solid state, NPs, THF, and other solvents, were also measured (FIG. 3d).
For better use in cancer theranostic, TPA-TBT and TPE-TBT were fabricated into nanoparticles (NPs) through the nanoprecipitation method using DSPE-PEG2000 as an encapsulation matrix. The hydrodynamic diameters of the two NPs were confirmed by dynamic light scattering (DLS). […] The UV/Vis absorption and fluorescence emission spectra of the two kinds of NPs were also measured, and the results are similar to that in the THF solutions. The fluorescence quantum yield (QY) of the two compounds in the solid state, NPs, THF, and other solvents, were also measured (FIG. 3d). […] ROS production efficiency and PCE were investigated to further explore the phototherapy potential of these AIEgens. We utilized a common ROS indicator Dichlorofluorescin Diace (H2DCF-DA), whose fluorescence can be sensitively activated by ROS, to indicate the overall ROS generation. From FIG. 3e, the fluorescence intensity of H2DCF-DA intensified rapidly in the presence of TPA-TBT NPs. Finally, it reached around 210-fold more robust than the initial intensity after 5 min upon white light irradiation, displaying a much higher ROS production efficiency than TPE-TBT NPs. […] While the PCE of TPE-TBT NPs is only 30%. Considering all the aspects, TPA-TBT NPs show longer fluorescence emission wavelength, higher ROS generation efficiency, and better photothermal efficiency. Therefore, TPA-TBT NPs are more promising for applications in the field of phototheranostic for synergistic cancer therapy.

The nature of series [3]: Aggregation behaviour (AIE) in THF/water mixtures. To be noted: increasing water fraction. The procedure:
as §1

Consider two molecules from patent US20260137786A1, “FLUORESCENT COMPOUNDS FOR SYNERGISTIC PHOTODYNAMIC AND PHOTOTHERMAL CANCER THERANOSTIC” (The Hong Kong University of Science and Technology, priority 2022, published 2026).

Regarding `CCCCCCC(CCCC)Cc1cc(-c2ccc(C(=C(c3ccc(OC)cc3)c3ccc(OC)cc3)c3ccccc3)cc2)sc1-c1c2c(c(-c3sc(-c4ccc(C(=C(c5ccc(OC)cc5)c5ccc(OC)cc5)c5ccccc5)cc4)cc3CC(CCCC)CCCCCC)c3nn(CC(CC)CCCC)nc13)N=S=N2` (stereo not drawn) [TPE-TBT], in series [1], the emission spectra peak amounted to 750 nm and the maximum absorption is 582 nm. Also, the “fluorescence quantum yield (QY)” value in series [2] (THE solution / solution state) is listed as “remarkable QY”.
For the molecule `CCCCCCC(CCCC)Cc1cc(-c2ccc(N(c3ccc(OC)cc3)c3ccc(OC)cc3)cc2)sc1-c1c2c(c(-c3sc(-c4ccc(N(c5ccc(OC)cc5)c5ccc(OC)cc5)cc4)cc3CC(CCCC)CCCCCC)c3nn(CC(CC)CCCC)nc13)N=S=N2` (stereo not drawn) [TPA-TBT], in series [1], the Stokes shift is recorded as 210 nm, the emission spectra peak turned out to be 830 nm and the maximum absorption turned out to be 620 nm. Moreover, in series [3], the AIE intensity enhancement turned out to be 3 fold. In addition, in series [2] (THE solution / solution state), the “fluorescence quantum yield (QY)” value amounted to 5%. The “fluorescence quantum yield (QY)” value in series [2] (solid state) was determined as 13%.
